Assays:
[1] = xn = mol fraction of the nth substance listed; conditions: 100 kPa, Liquid, Vibrating tube method
[2] = refractive index (Na D-line) (dimensionless); xn = mol fraction of the nth substance listed; conditions: 100 kPa, Liquid, Standard Abbe refractometry

CCCCCCCCOS(=O)(=O)[O-].CCCCn1cc[n+](C)c1 [1-butyl-3-methylimidazolium octyl sulfate] + O
Conditions	mass density, [1] [kg/m3]	refractive index, [2]
293.15 K, x1 = 0.1002	1048.11	1.4235
293.15 K, x1 = 0.2002	1060.01	1.4455
293.15 K, x1 = 0.3004	1063.92	1.4555
293.15 K, x1 = 0.4004	1065.86	1.461
293.15 K, x1 = 0.501	1066.97	1.464
293.15 K, x1 = 0.5998	1067.84	1.467
293.15 K, x1 = 0.6988	1068.5	1.4685
293.15 K, x1 = 0.8	1069.33	1.47
293.15 K, x1 = 0.9018	1070.47	1.4705
303.15 K, x1 = 0.1002	1041.72	1.422
303.15 K, x1 = 0.2002	1052.71	1.4435
303.15 K, x1 = 0.3004	1057.16	1.453
303.15 K, x1 = 0.4004	1059.15	1.4585
303.15 K, x1 = 0.501	1060.3	1.462
303.15 K, x1 = 0.5998	1061.29	1.4645
303.15 K, x1 = 0.6988	1061.97	1.466
303.15 K, x1 = 0.8	1062.8	1.4675
303.15 K, x1 = 0.9018	1063.98	1.4685
313.15 K, x1 = 0.1002	1035.13	1.4215
313.15 K, x1 = 0.2002	1046.53	1.4415
313.15 K, x1 = 0.3004	1050.37	1.4525
313.15 K, x1 = 0.4004	1052.42	1.457
313.15 K, x1 = 0.501	1053.61	1.4595
313.15 K, x1 = 0.5998	1054.71	1.462
313.15 K, x1 = 0.6988	1055.42	1.4635
313.15 K, x1 = 0.8	1056.28	1.465
313.15 K, x1 = 0.9018	1057.53	1.466
323.15 K, x1 = 0.1002	1028.37	1.421
323.15 K, x1 = 0.2002	1039.57	1.4405
323.15 K, x1 = 0.3004	1043.56	1.45
323.15 K, x1 = 0.4004	1045.67	1.4555
323.15 K, x1 = 0.501	1046.92	1.457
323.15 K, x1 = 0.5998	1048.14	1.46
323.15 K, x1 = 0.6988	1048.87	1.461
323.15 K, x1 = 0.8	1049.77	1.462
323.15 K, x1 = 0.9018	1051.07	1.4635
333.15 K, x1 = 0.1002	1021.44	1.419
333.15 K, x1 = 0.2002	1032.54	1.44
333.15 K, x1 = 0.3004	1036.7	1.4495
333.15 K, x1 = 0.4004	1038.91	1.4535
333.15 K, x1 = 0.501	1040.19	1.4545
333.15 K, x1 = 0.5998	1041.4	1.4575
333.15 K, x1 = 0.6988	1042.35	1.4585
333.15 K, x1 = 0.8	1043.27	1.46
333.15 K, x1 = 0.9018	1044.63	1.461
343.15 K, x1 = 0.1002	1014.33	1.419
343.15 K, x1 = 0.2002	1025.58	1.4395
343.15 K, x1 = 0.3004	1029.67	1.4465
343.15 K, x1 = 0.4004	1032.07	1.452
343.15 K, x1 = 0.501	1033.23	1.453
343.15 K, x1 = 0.5998	1034.54	1.4565
343.15 K, x1 = 0.6988	1035.66	1.457
343.15 K, x1 = 0.8	1036.82	1.458
343.15 K, x1 = 0.9018	1038.23	1.459

CCCCn1cc[n+](C)c1.F[B-](F)(F)F [1-butyl-3-methylimidazolium tetrafluoroborate] + O
Conditions	mass density, [1] [kg/m3]	refractive index, [2]
293.15 K, x1 = 0.0994	1106.69	1.383
293.15 K, x1 = 0.2005	1143.19	1.397
293.15 K, x1 = 0.3003	1161.69	1.406
293.15 K, x1 = 0.4003	1173.6	1.411
293.15 K, x1 = 0.5006	1182.13	1.414
293.15 K, x1 = 0.6004	1188.42	1.4165
293.15 K, x1 = 0.7008	1193.17	1.418
293.15 K, x1 = 0.8006	1196.75	1.42
293.15 K, x1 = 0.899	1199.6	1.4215
303.15 K, x1 = 0.0994	1100.29	1.379
303.15 K, x1 = 0.2005	1135.92	1.395
303.15 K, x1 = 0.3003	1154.24	1.403
303.15 K, x1 = 0.4003	1166.15	1.409
303.15 K, x1 = 0.5006	1174.73	1.4125
303.15 K, x1 = 0.6004	1181.09	1.415
303.15 K, x1 = 0.7008	1185.92	1.4165
303.15 K, x1 = 0.8006	1189.58	1.418
303.15 K, x1 = 0.899	1192.49	1.4195
313.15 K, x1 = 0.0994	1093.06	1.3765
313.15 K, x1 = 0.2005	1128.35	1.394
313.15 K, x1 = 0.3003	1146.77	1.4015
313.15 K, x1 = 0.4003	1158.78	1.4075
313.15 K, x1 = 0.5006	1167.43	1.41
313.15 K, x1 = 0.6004	1173.85	1.4125
313.15 K, x1 = 0.7008	1178.71	1.414
313.15 K, x1 = 0.8006	1182.39	1.416
313.15 K, x1 = 0.899	1185.31	1.4175
323.15 K, x1 = 0.0994	1085.97	1.376
323.15 K, x1 = 0.2005	1120.89	1.393
323.15 K, x1 = 0.3003	1139.33	1.4015
323.15 K, x1 = 0.4003	1151.42	1.4055
323.15 K, x1 = 0.5006	1160.15	1.4075
323.15 K, x1 = 0.6004	1166.65	1.4105
323.15 K, x1 = 0.7008	1171.59	1.4125
323.15 K, x1 = 0.8006	1175.31	1.414
323.15 K, x1 = 0.899	1178.26	1.415
333.15 K, x1 = 0.0994	1079.15	1.3755
333.15 K, x1 = 0.2005	1113.47	1.39
333.15 K, x1 = 0.3003	1131.87	1.401
333.15 K, x1 = 0.4003	1144.01	1.405
333.15 K, x1 = 0.5006	1152.8	1.4075
333.15 K, x1 = 0.6004	1159.37	1.4095
333.15 K, x1 = 0.7008	1164.36	1.411
333.15 K, x1 = 0.8006	1168.12	1.4125
333.15 K, x1 = 0.899	1171.04	1.4135
343.15 K, x1 = 0.0994	1072.21	1.3755
343.15 K, x1 = 0.2005	1106.02	1.39
343.15 K, x1 = 0.3003	1124.41	1.401
343.15 K, x1 = 0.4003	1136.62	1.4045
343.15 K, x1 = 0.5006	1145.48	1.407
343.15 K, x1 = 0.6004	1152.11	1.407
343.15 K, x1 = 0.7008	1157.17	1.4085
343.15 K, x1 = 0.8006	1161	1.409
343.15 K, x1 = 0.899	1164.1	1.411

— the NIST ThermoML archive (doi:10.1021/acs.jced.8b00854)
